Test results taken from patent US20130109682A1, “CYCLIC ETHER COMPOUNDS USEFUL AS KINASE INHIBITORS” (NOVARTIS AG, priority 2010, published 2013).
pIC50: −log10 of the molar value.

Legend:
Format in all cases: biochemical
[1] = target: GSK3β (Homo sapiens, UniProt P49841); experiment: GSK3β ATP depletion assay; conditions: ATP depletion assay; read-out: GSK3b IC50
In short: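 Human GSK3β (5 nM) preincubated 15 min with 10 μM biotinylated phospho-CREB peptide in pH 7.5 Tris buffer (15 mM MgCl2, 1 mM DTT, 0.1% BSA, 2.5% DMSO). Reaction started with 2 μM ATP and run to about 50% ATP depletion. Remaining ATP measured by KinaseGlo luminescence.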

[2] = target: PIM1 (Homo sapiens, UniProt P11309); experiment: Pim 1 AlphaScreen assay (high ATP); conditions: read-out: Pim1 IC50
Chain of PIM1 (P11309 whole entry): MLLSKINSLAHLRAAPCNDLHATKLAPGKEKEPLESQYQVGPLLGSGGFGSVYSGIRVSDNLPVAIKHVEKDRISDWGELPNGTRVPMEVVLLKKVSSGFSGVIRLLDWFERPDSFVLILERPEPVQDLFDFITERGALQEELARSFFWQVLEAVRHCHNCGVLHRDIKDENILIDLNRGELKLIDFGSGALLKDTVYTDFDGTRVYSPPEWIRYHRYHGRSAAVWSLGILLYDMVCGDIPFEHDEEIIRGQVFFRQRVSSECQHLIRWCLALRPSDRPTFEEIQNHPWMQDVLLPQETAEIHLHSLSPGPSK
Experimental: (§1) Pim1, Pim2, Pim3 AlphaScreen Assay Pim 1, Pim 2 & Pim 3 AlphaScreen assays using high ATP (11-125×ATP Km) were used to determine the biochemical activity of the inhibitors. The activity of Pim 1, Pim 2, & Pim 3 is measured using a homogeneous bead based system quantifying the amount of phosphorylated peptide substrate resulting from kinase-catalyzed phosphoryl transfer to a peptide substrate. Compounds to be tested are dissolved in 100% DMSO and directly distributed to a white 384-well plate at […] per well. To start the reaction, 5 μl of 100 nM Bad peptide (Biotin-AGAGRSRHSSYPAGT —OH) and ATP (concentrations described below) in assay buffer (50 mM Hepes, pH=7.5, 5 mM MgCl2, 0.05% BSA, 0.01% Tween-20, 1 mM DTT) is added to each well. This is followed by the addition of 5 μl/well of Pim 1, Pim 2 or Pim 3 kinase in assay buffer (concentrations described below). Final assay concentrations (described below) are in 2.5% DMSO. The reactions are performed for ˜2 hours, then stopped by the addition of 10 μl of 0.75 μg/ml anti-phospho Ser/Thr antibody (Cell Signaling), 10 μg/ml Protein A AlphaScreen beads (Perkin Elmer), and 10 μg/ml streptavidin coated AlphaScreen beads in stop/detection buffer (50 mM EDTA, 95 mM Tris, pH=7.5, 0.01% Tween-20). The stopped reactions are incubated overnight in the dark. The phosphorylated peptide is detected via an […] initiated chemiluminescence/fluorescence cascade using the Envision plate reader (Perkin Elmer).
(§2) IC50, the half maximal inhibitory concentration, represents the concentration of a test compound that is required for 50% inhibition of its target in vitro under the described assay conditions.

[3] = target: PIM2 (Homo sapiens, UniProt Q9P1W9); experiment: Pim 2 AlphaScreen assay (high ATP); conditions: read-out: Pim2 IC50
Chain of PIM2 (Q9P1W9 whole entry): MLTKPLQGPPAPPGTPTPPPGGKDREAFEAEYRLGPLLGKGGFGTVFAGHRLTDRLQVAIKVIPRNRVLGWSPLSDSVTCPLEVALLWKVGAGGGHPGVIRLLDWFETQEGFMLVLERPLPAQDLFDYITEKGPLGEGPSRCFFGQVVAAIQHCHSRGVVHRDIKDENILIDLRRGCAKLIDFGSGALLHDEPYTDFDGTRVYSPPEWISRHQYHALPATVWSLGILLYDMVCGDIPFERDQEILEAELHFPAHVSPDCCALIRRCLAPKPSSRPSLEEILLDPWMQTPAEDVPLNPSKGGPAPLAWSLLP
In short: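 This is a bead-based AlphaScreen run at high ATP (11-125× Km) with biotin-Bad peptide (100 nM in the substrate mix), in 50 mM Hepes pH 7.5, 5 mM MgCl2, 0.05% BSA, 0.01% Tween-20, 1 mM DTT and 2.5% DMSO final. After ~2 h the reaction was stopped with EDTA. Phospho-peptide was detected overnight with anti-phospho Ser/Thr antibody on Protein A and streptavidin beads, giving IC50.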

[4] = target: PIM3 (Homo sapiens, UniProt Q86V86); experiment: Pim 3 AlphaScreen assay (high ATP); conditions: read-out: Pim3 IC50
Experimental: as §1, §2

Chain of GSK3β (P49841 whole entry, species assumed): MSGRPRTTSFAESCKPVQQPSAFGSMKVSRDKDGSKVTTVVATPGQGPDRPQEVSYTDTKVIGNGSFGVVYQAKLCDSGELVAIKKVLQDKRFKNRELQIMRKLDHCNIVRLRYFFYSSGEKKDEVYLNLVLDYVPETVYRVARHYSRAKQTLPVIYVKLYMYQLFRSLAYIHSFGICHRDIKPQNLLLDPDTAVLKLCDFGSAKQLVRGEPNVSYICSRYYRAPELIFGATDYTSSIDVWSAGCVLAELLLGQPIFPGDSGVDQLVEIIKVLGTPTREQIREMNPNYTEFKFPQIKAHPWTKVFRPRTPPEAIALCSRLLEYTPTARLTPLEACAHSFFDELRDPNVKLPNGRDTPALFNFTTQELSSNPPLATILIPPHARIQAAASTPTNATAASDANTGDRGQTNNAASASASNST

Row | pIC50 [1] | pIC50 [2] | pIC50 [3] | pIC50 [4] | SMILES
1 | 5.22 | 8.70 | 6.40 | 7.56 | C[C@@]1(O)[C@@H](N)C[C@@H](c2ccncc2NC(=O)c2ccc(F)c(-c3c(F)cccc3F)n2)OC12CC2 [Example 266, N-(4-((5S,7S,8R)-7-amino-8-hydroxy-8-methyl-4-oxaspiro[2.5]octan-5-yl)pyridin-3-yl)-6-(2,6-difluorophenyl)-5-fluoropicolinamide]
2 | 6.68 | 9.80 | 7.69 | 8.44 | CC(C)(C)[C@H]1O[C@@H](c2ccncc2NC(=O)c2csc(-c3c(F)cccc3F)n2)C[C@@H](N)[C@@H]1O [Example 268, N-(4-((2R,4R,5S,6R)-4-amino-6-tert-butyl-5-hydroxytetrahydro-2H-pyran-2-yl)pyridin-3-yl)-2-(2,6-difluorophenyl)thiazole-4-carboxamide]
3 | 4.78 | 8.58 | 6.63 | 7.28 | CC[C@H]1O[C@@H](c2ccncc2NC(=O)c2ccc(F)c(-c3c(F)cccc3F)n2)C[C@@H](N)[C@]1(C)O (stereo in doubt) [Example 275, N-(4-((2R,4R,5S,6R)-4-amino-6-ethyl-5-hydroxy-5-methyltetrahydro-2H-pyran-2-yl)pyridin-3-yl)-6-(2,6-difluorophenyl)-5-fluoropicolinamide]
4 | 5.98 | 10.52 | 8.51 | 9.30 | Cc1cc(F)c(-c2nc(C(=O)Nc3cnccc3[C@H]3C[C@@H](N)[C@H](O)[C@@H](C(C)(C)C)O3)ccc2F)c(F)c1 [Example 270, N-(4-((2R,4R,5S,6R)-4-amino-6-tert-butyl-5-hydroxytetrahydro-2H-pyran-2-yl)pyridin-3-yl)-6-(2,6-difluoro-4-methylphenyl)-5-fluoropicolinamide]
5 | 5.56 | 9.82 | 8.37 | 8.68 | CC(C)[C@H]1O[C@@H](c2ccncc2NC(=O)c2ccc(F)c(-c3c(F)cccc3F)n2)C[C@@H](N)[C@@H]1O [Example 271, N-(4-((2R,4R,5S,6R)-4-amino-5-hydroxy-6-isopropyltetrahydro-2H-pyran-2-yl)pyridin-3-yl)-6-(2,6-difluorophenyl)-5-fluoropicolinamide]
6 | 6.21 | 10.52 | 8.62 | 9.30 | COc1cc(F)c(-c2nc(C(=O)Nc3cnccc3[C@H]3C[C@@H](N)[C@H](O)[C@@H](C(C)(C)C)O3)ccc2F)c(F)c1 [Example 269, N-(4-((2R,4R,5S,6R)-4-amino-6-tert-butyl-5-hydroxytetrahydro-2H-pyran-2-yl)pyridin-3-yl)-6-(2,6-difluoro-4-methoxyphenyl)-5-fluoropicolinamide]

The next lines start with the molecule.

Row | SMILES | pIC50 [1] | pIC50 [2] | pIC50 [3] | pIC50 [4]
7 | N[C@@H]1C[C@H](c2ccncc2NC(=O)c2ccnc(-c3c(F)cccc3F)n2)O[C@@H]2CCCC[C@]12O [Example 237, N-(4-((2R,4R,4aS,8aR)-4-amino-4a-hydroxyoctahydro-2H-chromen-2-yl)pyridin-3-yl)-2-(2,6-difluorophenyl)pyrimidine-4-carboxamide] | 7.89 | 8.47 | 7.15 | 7.62
8 | C[C@@]1(O)[C@@H](N)C[C@@H](c2ccncc2NC(=O)c2ccc(F)c(-c3c(F)cccc3F)n2)O[C@H]1C1CC1 [Example 257, N-(4-((2S,4S,5R,6S)-4-amino-6-cyclopropyl-5-hydroxy-5-methyltetrahydro-2H-pyran-2-yl)pyridin-3-yl)-6-(2,6-difluorophenyl)-5-fluoropicolinamide] | 4.70 | 8.73 | 6.76 | 7.44
9 | N[C@H]1C[C@@H](c2ccncc2NC(=O)c2ccc(F)c(-c3c(F)cccc3F)n2)O[C@@H](C2CC2)[C@@H]1O [Example 236, N-(4-((2S,4S,5R,6S)-4-amino-6-cyclopropyl-5-hydroxytetrahydro-2H-pyran-2-yl)pyridin-3-yl)-6-(2,6-difluorophenyl)-5-fluoropicolinamide] | < 4.60 | 8.44 | 6.68 | 6.94
10 | CC[C@]1(O)[C@H](N)C[C@H](c2ccncc2NC(=O)c2nc(-c3c(F)cccc3F)ncc2N)O[C@@H]1C [Example 239, 5-amino-N-(4-((2R,4R,5S,6R)-4-amino-5-ethyl-5-hydroxy-6-methyltetrahydro-2H-pyran-2-yl)pyridin-3-yl)-2-(2,6-difluorophenyl)pyrimidine-4-carboxamide] | 6.45 | 9.04 | 7.62 | 8.08
11 | Nc1cnc(-c2c(F)cccc2F)nc1C(=O)Nc1cnccc1[C@@H]1C[C@H](O)[C@@H](O)C2(CC2)O1 [Example 251, 5-amino-2-(2,6-difluorophenyl)-N-(4-((5S,7S,8R)-7,8-dihydroxy-4-oxaspiro[2.5]octan-5-yl)pyridin-3-yl)pyrimidine-4-carboxamide] | 5.95 | 7.04 | 5.04 | 5.88
12 | CC(C)(C)[C@@H]1O[C@H](c2ccncc2NC(=O)c2ccc(F)c(-c3c(F)cccc3F)n2)C[C@H](N)[C@H]1O [Example 254, N-(4-((2S,4S,5R,6S)-4-amino-6-(tert-butyl)-5-hydroxytetrahydro-2H-pyran-2-yl)pyridin-3-yl)-6-(2,6-difluorophenyl)-5-fluoropicolinamide] | 5.33 | 9.11 | 7.33 | 7.80
13 | C[C@@]1(O)[C@@H](O)C[C@@H](c2ccncc2NC(=O)c2ccc(F)c(-c3c(F)cccc3F)n2)O[C@H]1C1CC1 [Example 248, N-(4-((2S,4S,5R,6S)-6-cyclopropyl-4,5-dihydroxy-5-methyltetrahydro-2H-pyran-2-yl)pyridin-3-yl)-6-(2,6-difluorophenyl)-5-fluoropicolinamide] | 5.71 | 7.04 | 5.03 | 5.64
14 | Nc1cnc(-c2c(F)cccc2F)nc1C(=O)Nc1cnccc1[C@H]1C[C@@H](O)[C@H](O)C2(CC2)O1 [Example 252, 5-amino-2-(2,6-difluorophenyl)-N-(4-((5R,7R,8S)-7,8-dihydroxy-4-oxaspiro[2.5]octan-5-yl)pyridin-3-yl)pyrimidine-4-carboxamide] | 6.24 | 7.69 | 6.07 | 6.60
15 | CC[C@]1(O)[C@H](N)C[C@H](c2ccncc2NC(=O)c2ccc(F)c(-c3c(F)cc(C)cc3F)n2)O[C@@H]1C [Example 259, N-(4-((2R,4R,5S,6R)-4-amino-5-ethyl-5-hydroxy-6-methyltetrahydro-2H-pyran-2-yl)pyridin-3-yl)-6-(2,6-difluoro-4-methylphenyl)-5-fluoropicolinamide] | 6.66 | 10.52 | 8.32 | 9.40
16 | C[C@]1(O)[C@H](O)C[C@H](c2ccncc2NC(=O)c2ccc(F)c(-c3c(F)cccc3F)n2)O[C@@H]1C1CC1 [Example 247, N-(4-((2R,4R,5S,6R)-6-cyclopropyl-4,5-dihydroxy-5-methyltetrahydro-2H-pyran-2-yl)pyridin-3-yl)-6-(2,6-difluorophenyl)-5-fluoropicolinamide] | 5.92 | 8.40 | 6.73 | 6.99
17 | COc1ccc(F)c(-c2nc(C(=O)Nc3cnccc3[C@H]3C[C@@H](N)[C@](C)(O)[C@@H](C)O3)ccc2F)c1F [Example 244, N-(4-((2R,4R,5S,6R)-4-amino-5-hydroxy-5,6-dimethyltetrahydro-2H-pyran-2-yl)pyridin-3-yl)-6-(2,6-difluoro-3-methoxyphenyl)-5-fluoropicolinamide] | 6.09 | 10.10 | 7.91 | 8.92
18 | Cc1cc(F)c(-c2nc(C(=O)Nc3cnccc3[C@H]3C[C@@H](N)[C@](C)(O)[C@@H](C4CC4)O3)ccc2F)c(F)c1 [Example 264, N-(4-((2R,4R,5S,6R)-4-amino-6-cyclopropyl-5-hydroxy-5-methyltetrahydro-2H-pyran-2-yl)pyridin-3-yl)-6-(2,6-difluoro-4-methylphenyl)-5-fluoropicolinamide] | 5.75 | 9.96 | 8.09 | 8.62
